Test system: 782815-120-R-J1-PDC complex spheroid viability
Assay: Anticancer human tumor 782815-120-R-J1-PDC patient-derived colon adenocarcinoma cell line growth inhibition [RAS]
Settings: for IC50: curve of first compound; for viability, T/C: stronger effect = lower value
Summary of the method: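 Multi-cell-type spheroids: tumor cells plus HUVEC endothelial cells and mesenchymal stem cells. RAS-pathway inhibitors were combined with targeted agents, each dosed in half-log steps down from clinical Cmax, or from 10 microM when Cmax was unknown.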
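Further: spheroids exposed to compounds for 7 days before reading.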
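Wherever viability, T/C is given: 100% = DMSO vehicle control viability.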

CC(=O)OC12COC1CC(O)C1(C)C(=O)C(O)C3=C(C)C(OC(=O)C(O)C(NC(=O)OC(C)(C)C)c4ccccc4)CC(O)(C(OC(=O)c4ccccc4)C21)C3(C)C (centres undefined) + CCn1c(-c2cccnc2C(C)OC)c2c3cc(ccc31)N1CCOC(CC(NC(=O)C(C(C)C)N(C)C(=O)C3(F)CCN(C(=O)C#CC(C)(C)N(C)C)CC3)C(=O)N3CCCC(N3)C(=O)OCC(C)(C)C2)C1
IC50 (second compound 0.000949 µM): < 31.6 nM
IC50 (second compound 0.003 µM): < 31.6 nM
IC50 (second compound 0.00949 µM): < 31.6 nM
IC50 (second compound 0.03 µM): < 31.6 nM
IC50 (second compound 0.0949 µM): < 31.6 nM
IC50 (second compound 0.3 µM): < 31.6 nM
viability, T/C (second compound 0.000949 µM, first compound 0.0316 µM): 31.7%
viability, T/C (second compound 0.000949 µM, first compound 0.1 µM): 27.2%
viability, T/C (second compound 0.000949 µM, first compound 0.316 µM): 28.5%
viability, T/C (second compound 0.000949 µM, first compound 1 µM): 30.2%
viability, T/C (second compound 0.000949 µM, first compound 3.16 µM): 27.4%
viability, T/C (second compound 0.000949 µM, first compound 10 µM): 32.5%
viability, T/C (second compound 0.003 µM, first compound 0.0316 µM): 33.1%
viability, T/C (second compound 0.003 µM, first compound 0.1 µM): 26.5%
viability, T/C (second compound 0.003 µM, first compound 0.316 µM): 28.2%
viability, T/C (second compound 0.003 µM, first compound 1 µM): 32.6%
viability, T/C (second compound 0.003 µM, first compound 3.16 µM): 27.9%
viability, T/C (second compound 0.003 µM, first compound 10 µM): 30.2%
viability, T/C (second compound 0.00949 µM, first compound 0.0316 µM): 29%
viability, T/C (second compound 0.00949 µM, first compound 0.1 µM): 29.7%
viability, T/C (second compound 0.00949 µM, first compound 0.316 µM): 29.9%
viability, T/C (second compound 0.00949 µM, first compound 1 µM): 32.5%
viability, T/C (second compound 0.00949 µM, first compound 3.16 µM): 26.1%
viability, T/C (second compound 0.00949 µM, first compound 10 µM): 28.2%
viability, T/C (second compound 0.03 µM, first compound 0.0316 µM): 34.2%
viability, T/C (second compound 0.03 µM, first compound 0.1 µM): 29.4%
viability, T/C (second compound 0.03 µM, first compound 0.316 µM): 24%
viability, T/C (second compound 0.03 µM, first compound 1 µM): 27.7%
viability, T/C (second compound 0.03 µM, first compound 3.16 µM): 29.5%
viability, T/C (second compound 0.03 µM, first compound 10 µM): 27.7%
viability, T/C (second compound 0.0949 µM, first compound 0.0316 µM): 28.6%
viability, T/C (second compound 0.0949 µM, first compound 0.1 µM): 29.9%
viability, T/C (second compound 0.0949 µM, first compound 0.316 µM): 25.7%
viability, T/C (second compound 0.0949 µM, first compound 1 µM): 31.2%
viability, T/C (second compound 0.0949 µM, first compound 3.16 µM): 26%
viability, T/C (second compound 0.0949 µM, first compound 10 µM): 26.7%
viability, T/C (second compound 0.3 µM, first compound 0.0316 µM): 22.7%
viability, T/C (second compound 0.3 µM, first compound 0.1 µM): 27.9%
viability, T/C (second compound 0.3 µM, first compound 0.316 µM): 23.3%
viability, T/C (second compound 0.3 µM, first compound 1 µM): 21.9%
viability, T/C (second compound 0.3 µM, first compound 3.16 µM): 25.2%
viability, T/C (second compound 0.3 µM, first compound 10 µM): 24.4%

C=CC(=O)Nc1cc(Nc2nccc(-c3cn(C)c4ccccc34)n2)c(OC)cc1N(C)CCN(C)C + C#Cc1c(F)ccc2cc(O)cc(-c3ncc4c(N5CC6CCC(C5)N6)nc(OCC56CCCN5CC(F)C6)nc4c3F)c12
IC50 (second compound 0.0316 µM): > 1000 nM
IC50 (second compound 0.1 µM): > 1000 nM
IC50 (second compound 0.316 µM): > 1000 nM
IC50 (second compound 1 µM): > 1000 nM
IC50 (second compound 3.16 µM): > 1000 nM
IC50 (second compound 10 µM): > 1000 nM
viability, T/C (second compound 0.0316 µM, first compound 0.00316 µM): 99.3%
viability, T/C (second compound 0.0316 µM, first compound 0.01 µM): 93.8%
viability, T/C (second compound 0.0316 µM, first compound 0.0316 µM): 101%
viability, T/C (second compound 0.0316 µM, first compound 0.1 µM): 97.2%
viability, T/C (second compound 0.0316 µM, first compound 0.316 µM): 98.9%
viability, T/C (second compound 0.0316 µM, first compound 1 µM): 93.6%
viability, T/C (second compound 0.1 µM, first compound 0.00316 µM): 103%
viability, T/C (second compound 0.1 µM, first compound 0.01 µM): 97.2%
viability, T/C (second compound 0.1 µM, first compound 0.0316 µM): 97.5%
viability, T/C (second compound 0.1 µM, first compound 0.1 µM): 93.6%
viability, T/C (second compound 0.1 µM, first compound 0.316 µM): 101%
viability, T/C (second compound 0.1 µM, first compound 1 µM): 89.5%
viability, T/C (second compound 0.316 µM, first compound 0.00316 µM): 98.2%
viability, T/C (second compound 0.316 µM, first compound 0.01 µM): 94.3%
viability, T/C (second compound 0.316 µM, first compound 0.0316 µM): 105%
viability, T/C (second compound 0.316 µM, first compound 0.1 µM): 89%
viability, T/C (second compound 0.316 µM, first compound 0.316 µM): 95%
viability, T/C (second compound 0.316 µM, first compound 1 µM): 101%
viability, T/C (second compound 1 µM, first compound 0.00316 µM): 95.5%
viability, T/C (second compound 1 µM, first compound 0.01 µM): 96%
viability, T/C (second compound 1 µM, first compound 0.0316 µM): 101%
viability, T/C (second compound 1 µM, first compound 0.1 µM): 92.4%
viability, T/C (second compound 1 µM, first compound 0.316 µM): 100%
viability, T/C (second compound 1 µM, first compound 1 µM): 101%
viability, T/C (second compound 3.16 µM, first compound 0.00316 µM): 99.9%
viability, T/C (second compound 3.16 µM, first compound 0.01 µM): 101%
viability, T/C (second compound 3.16 µM, first compound 0.0316 µM): 98.4%
viability, T/C (second compound 3.16 µM, first compound 0.1 µM): 94.4%
viability, T/C (second compound 3.16 µM, first compound 0.316 µM): 97%
viability, T/C (second compound 3.16 µM, first compound 1 µM): 95.8%
viability, T/C (second compound 10 µM, first compound 0.00316 µM): 100%
viability, T/C (second compound 10 µM, first compound 0.01 µM): 91.7%
viability, T/C (second compound 10 µM, first compound 0.0316 µM): 110%
viability, T/C (second compound 10 µM, first compound 0.1 µM): 101%
viability, T/C (second compound 10 µM, first compound 0.316 µM): 94.4%
viability, T/C (second compound 10 µM, first compound 1 µM): 91.7%

Reference: PubChem BioAssay AID2060887 (Molecular Pharmacology Branch, DTP, NCI, 2025)
